Reference: patent US20070299092A1 (Wyeth, priority 2004, published 2007)
“And” between values parts separate entries of the source, which are not always exact repeats. Equal values may be shown once. Read-outs that look alike come from different tables or passages of the source.

Experiments:
[1] = biological target: T1, human KDR (VEGF-receptor-2) (Homo sapiens, UniProt P35968); experiment: KDR kinase enzyme assay (DELFIA, KDR-IC-Flag, poly(Glu4-Tyr) peptide); assay type: biochemical; conditions: for inhibition at 0.1 µM / inhibition at 1 µM: read-out: % Inhibition
T1 construct: beginning at Met-806; (5′-ATG GAT CCA GAT GM CTC CCA TTG) and ending at Val-1356; made in house

[2] = biological target: T2, KDR (Homo sapiens, UniProt P35968); conditions: compound conc. 1000 nM
[3] = biological target: T2, KDR; experiment: cell-based; conditions: for inhibition at 1 µM: read-out: % Inhibition of KDR kinase autophosphorylation in KDR15 cells, compound conc. 1000 nM; for IC50: IC50 (nM), inhibition of KDR kinase autophosphorylation in KDR15 cells, KDR15 cells, VEGF 50 ng/ml, phospho-KDR-Y996 immunoblot
[4] = biological target: T1, human KDR (VEGF-receptor-2); experiment: KDR kinase enzyme assay wash-out experiments (irreversible inhibition); assay type: biochemical
Procedure: To determine if compounds bound irreversibly to enzyme, plates were washed after the enzyme plus compound pre-incubation step and prior to the addition of ATP. Parallel plates were tested wherein one plate was processed exactly as above while a second plate was washed three times in 100 μl of 4 mM HEPES, pH 7.4, to remove unbound compound. 1× Kinase buffer (30 μl of 1 mM MnCl2, 4 mM HEPES, pH 7.4, 20 μM Na3VO4) and 20 μl of ATP/MgCl2 were added to the wash-out plate. Detection of phosphotyrosinylated peptide for both plates was performed as described above.
For each inhibitor shown in Table 2, two IC50 determinations are shown, one under normal conditions and the other where an intermediate wash-out step is carried out. […] If there was a large increase in the IC50 value in the wash-out experiment compared to the experiment where there was no wash-out, then it was determined that the compound was behaving as a conventional reversible binding inhibitor.

[5] = test system: Human umbilical vein endothelial cells (HUVEC); experiment: HUVEC proliferation assay, VEGF-dependent growth ([3H]-thymidine incorporation); assay type: cell-based; conditions: for inhibition at 0.1 µM / inhibition at 1 µM / inhibition at 10 µM: Homo sapiens, HUVEC
How it was run: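 HUVEC seeded 4000 cells/well, attached overnight, then given compound in serum/VEGF-free EBM plus 50 ng/ml VEGF (final); parallel plates used EGM2 with 2% serum lacking VEGF. Incubation 4-5 days at 37° C. DNA synthesis measured by 5 h [3H]-thymidine (1 μCi/well) incorporation, scintillation-counted.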

[6] = Concentration 100 nM, ATP conc. 10 μM
[7] = Concentration 1000 nM, ATP conc. 10 μM
[8] = Concentration 1000 nM, ATP conc. 1000 μM

T2 sequence (P35968 20-1356): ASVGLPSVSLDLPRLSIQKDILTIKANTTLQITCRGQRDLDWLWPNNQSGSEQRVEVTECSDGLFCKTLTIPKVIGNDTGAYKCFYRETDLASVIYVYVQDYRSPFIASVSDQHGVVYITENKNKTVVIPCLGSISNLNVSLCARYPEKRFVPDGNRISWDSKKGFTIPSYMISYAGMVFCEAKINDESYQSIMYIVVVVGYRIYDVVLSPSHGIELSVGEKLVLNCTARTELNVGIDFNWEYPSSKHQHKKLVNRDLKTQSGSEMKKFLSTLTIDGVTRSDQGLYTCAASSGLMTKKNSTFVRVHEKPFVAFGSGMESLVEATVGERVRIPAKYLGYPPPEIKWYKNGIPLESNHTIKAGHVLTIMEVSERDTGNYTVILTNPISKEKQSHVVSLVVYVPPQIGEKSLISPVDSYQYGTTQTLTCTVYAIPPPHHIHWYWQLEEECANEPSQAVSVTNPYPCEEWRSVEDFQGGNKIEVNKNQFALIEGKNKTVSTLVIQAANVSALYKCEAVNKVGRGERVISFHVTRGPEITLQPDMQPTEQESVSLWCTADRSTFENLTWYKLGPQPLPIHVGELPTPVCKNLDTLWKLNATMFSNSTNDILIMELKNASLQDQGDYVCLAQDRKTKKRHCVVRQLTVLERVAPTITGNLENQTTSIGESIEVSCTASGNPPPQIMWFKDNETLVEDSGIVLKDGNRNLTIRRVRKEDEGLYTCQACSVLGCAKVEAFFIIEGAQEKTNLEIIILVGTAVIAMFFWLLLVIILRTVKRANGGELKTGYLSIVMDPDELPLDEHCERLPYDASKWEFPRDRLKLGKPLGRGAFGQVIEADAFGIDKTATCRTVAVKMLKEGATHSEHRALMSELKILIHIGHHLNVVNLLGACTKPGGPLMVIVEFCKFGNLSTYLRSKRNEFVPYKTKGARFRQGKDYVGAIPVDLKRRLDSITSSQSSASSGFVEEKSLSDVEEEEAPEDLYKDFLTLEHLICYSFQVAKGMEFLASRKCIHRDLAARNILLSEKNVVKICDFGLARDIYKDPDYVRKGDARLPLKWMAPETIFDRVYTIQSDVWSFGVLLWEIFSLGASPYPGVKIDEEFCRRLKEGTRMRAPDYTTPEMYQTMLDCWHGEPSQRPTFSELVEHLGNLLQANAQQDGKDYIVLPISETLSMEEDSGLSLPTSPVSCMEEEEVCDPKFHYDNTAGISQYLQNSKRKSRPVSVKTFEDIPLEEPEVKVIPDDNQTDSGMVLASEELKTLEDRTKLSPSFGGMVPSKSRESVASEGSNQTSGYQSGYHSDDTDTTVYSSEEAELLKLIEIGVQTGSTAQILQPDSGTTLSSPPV
T1 sequence (P35968 806-1356): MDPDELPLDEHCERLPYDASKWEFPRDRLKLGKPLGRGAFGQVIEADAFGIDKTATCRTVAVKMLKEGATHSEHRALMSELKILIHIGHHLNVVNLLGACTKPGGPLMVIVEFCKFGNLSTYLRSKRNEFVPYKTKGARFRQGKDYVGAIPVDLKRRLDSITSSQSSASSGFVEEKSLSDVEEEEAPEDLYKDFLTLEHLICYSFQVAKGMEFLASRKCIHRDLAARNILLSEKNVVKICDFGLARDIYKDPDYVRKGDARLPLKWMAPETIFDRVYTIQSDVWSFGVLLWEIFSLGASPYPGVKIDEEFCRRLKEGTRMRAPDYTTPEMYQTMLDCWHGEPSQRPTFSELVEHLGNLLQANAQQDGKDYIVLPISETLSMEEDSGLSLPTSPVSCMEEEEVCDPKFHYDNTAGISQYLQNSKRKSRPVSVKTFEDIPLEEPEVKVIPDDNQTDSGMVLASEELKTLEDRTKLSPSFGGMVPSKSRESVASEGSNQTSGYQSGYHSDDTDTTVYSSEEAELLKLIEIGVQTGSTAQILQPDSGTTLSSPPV

| Compound | IC50 ([1]; ATP conc. 10 μM) | inhibition at 0.1 µM [1, 6] | inhibition at 1 µM [1, 7] | inhibition at 1 µM [1, 8] | % Inhibition of KDR kinase autophosphorylation in KDR15 cells [2] | inhibition at 1 µM [3] | IC50 ([4]; no wash) | IC50 ([4]; wash out) | IC50 [3] | inhibition at 0.1 µM ([5]; conc. 100 nM) | inhibition at 1 µM ([5]; conc. 1000 nM) | inhibition at 10 µM ([5]; conc. 10000 nM) | melting point | other results |
| --- | --- | --- | --- | --- | --- | --- | --- | --- | --- | --- | --- | --- | --- | --- |
| COc1cc2ncnc(NC3=CC(=O)C(Cl)=CC3=O)c2cc1OC [Example 2, 2-chloro-5-[(6,7-dimethoxy-4-quinazolinyl)amino]benzo-1,4-quinone] | 5.1 nM | 83% | 96% | 98% | 12% | 18% |  |  |  |  |  |  |  |  |
| COc1cc2ncnc(NC3=CC(=O)C(C)=CC3=O)c2cc1OC [Example 4, 2-[(6,7-dimethoxy-4-quinazolinyl)amino]-5-methylbenzo-1,4-quinone] | 80.5 nM and 285 nM and 707 nM |  | 15% | 12% | 106% | 100% | 285 nM | > 1000 nM | < 15.6 nM |  |  |  |  | Behaviour as reversible or irreversible binding inhibitor ([4]; IC50 with wash-out step compared to no wash-out step): appear to act like reversible binding inhibitors |
| COc1cc2ncnc(NC3=CC(=O)C=C(C)C3=O)c2cc1OC [Example 7, 2-[(6,7-dimethoxy-4-quinazolinyl)amino]-6-methylbenzo-1,4-quinone] | 2.3 nM and 1.3 nM | 85% | 96% | 97% | 41% |  | 2.3 nM | 1.2 nM | 250 nM | 23% | 79% | 97% |  | inhibition at 10 µM ([1]; Concentration 10000 nM, ATP conc. 10 μM): 96% |
| COc1cc2ncnc(NC3=CC(=O)C(C(C)C)=CC3=O)c2cc1OC [Example 9, 2-[(6,7-dimethoxy-4-quinazolinyl)amino]-5-isopropylbenzo-1,4-quinone] |  | 24% | 58% | 33% | 55% and 94% |  |  |  |  |  |  |  |  |  |
| COCCOc1cc2ncnc(NC3=CC(=O)C(Oc4ccc(S(N)(=O)=O)cc4)=CC3=O)c2cc1OC [Example 38, 4-[(4-{[6-methoxy-7-(2-methoxyethoxy)quinazolin-4-yl]amino}-3,6-dioxocyclohexa-1,4-dien-1-yl)oxy] benzenesulfonamide] |  |  |  |  | 97% |  |  |  |  |  |  |  |  | % Inhibition [1, 6]: 93%; % Inhibition [1, 7]: 95% |
| COCCOc1cc2ncnc(NC3=CC(=O)C(N(C)c4ccc(OC)c(OC)c4)=CC3=O)c2cc1OC [Example 73, 2-[(3,4-dimethoxyphenyl)(methyl)amino]-5-{[6-methoxy-7-(2-methoxyethoxy)quinazolin-4-yl]amino}benzo-1,4-quinone] | 1840 nM and > 1000 nM |  | 30% | -2% | 90% and 143% and 113% |  |  |  | < 15.6 nM |  |  |  |  | inhibition at 10 µM ([1]; Concentration not given, ATP conc. 10 μM): 13% |
| COCCOc1cc2ncnc(NC3=CC(=O)C(N(C)c4ccc(N(C)C)cc4)=CC3=O)c2cc1OC [Example 75, 2-[[4-(dimethylamino)phenyl](methyl)amino]-5-{[6-methoxy-7-(2-methoxyethoxy)quinazolin-4-yl]amino}benzo-1,4-quinone] | 93 nM | 47% | 92% | 93% | 61% | 45% | 93 nM | 161 nM |  | -22% | 41% | 91% |  |  |
| COCCOc1cc2ncnc(NC3=CC(=O)C(N(C)c4ccc(OC)cc4)=CC3=O)c2cc1OC [Example 78, 2-{[6-methoxy-7-(2-methoxyethoxy)quinazolin-4-yl]amino}-5-[(4-methoxyphenyl)(methyl)amino]benzo-1,4-quinone] | 147 nM and 95.9 nM and 406 nM |  |  |  | 61% |  | 147 nM and 95.9 nM | 514 nM and 150 nM |  | 6% |  |  | 197 to 198 °C | % Inhibition of VEGF-dependent growth of HUVEC ([5]; conc. 100 nM): 9%; % Inhibition of VEGF-dependent growth of HUVEC ([5]; conc. 10000 nM): 94% and 99% and 74% |
| COCCOc1cc2ncnc(NC3=CC(=O)C(N(C)C4CCCCC4)=CC3=O)c2cc1OC [Example 80, 2-[cyclohexyl(methyl)amino]-5-{[6-methoxy-7-(2-methoxyethoxy)quinazolin-4-yl]amino}benzo-1,4-quinone] | 654 nM |  |  |  | 52% |  |  |  | < 62.5 nM | 39% | 85% | 97% | 178 to 180 °C |  |
| COc1cc2ncnc(NC3=CC(=O)C(Oc4ccc(Cl)cc4)=CC3=O)c2cc1OC [Example 94, 2-(4-chlorophenoxy)-5-[(6,7-dimethoxyquinazolin-4-yl)amino]benzo-1,4-quinone] | 4 nM | 93% | 94% | 96% | 40% and 54% and 64% |  |  |  | 386 nM | 28% | 60% | 94% |  | % Inhibition of VEGF-dependent growth of HUVEC ([5]; conc. 100 nM): 20%; % Inhibition of VEGF-dependent growth of HUVEC ([5]; conc. 1000 nM): 52%; % Inhibition of VEGF-dependent growth of HUVEC ([5]; conc. 10000 nM): 78% |
| COCCOc1cc2ncnc(NC3=CC(=O)C(OCc4ccccc4)=CC3=O)c2cc1OC [Example 96, 2-(benzyloxy)-5-{[6-methoxy-7-(2-methoxyethoxy)quinazolin-4-yl]amino}benzo-1,4-quinone] | 52.8 nM | 67% | 91% | 96% | 22% | 26% |  |  |  |  |  |  | 218 to 220 °C |  |
| COc1cc2ncnc(NC3=CC(=O)C(c4ccccc4)=CC3=O)c2cc1OC [Example 99, 2-[(6,7-dimethoxyquinazolin-4-yl)amino]-5-phenylbenzo-1,4-quinone] |  | 93% | 92% | 96% | 29% | 20% |  |  |  |  |  |  | 200 to 205 °C |  |
| COCCOc1cc2ncnc(NC3=CC(=O)C4(C)OC4C3=O)c2cc1OC (centres unmarked) [Example 106, 4-{[6-methoxy-7-(2-methoxyethoxy)-4-quinazolinyl]amino}-1-methyl-7-oxabicyclo[4.1.0]hept-3-ene-2,5-dione] | 339 nM |  | 69% | 70% | 78% and 100% and 59% |  |  |  |  |  |  |  |  |  |
